Experiment [1] has as its target JAK3 (Homo sapiens, UniProt P52333). As to the kind of experiment: SelectScreen biochemical kinase profiling, JAK3. The note with it: JAK3, cell free; read-out: Enzyme inhibitory activity IC50. Here is the method: (§1) The in vitro kinase inhibitory assays in the presence of compounds 323-1 and 323-2 were carried out according to the Z′-LYTE™ Screening and LanthaScreen Eu Kinase Binding Assays Experimental Procedures in Invitrogen (ThermoFisher Scientific, Waltham, Mass., USA). For the Z′-LYTE™ Screening profiling for FRAP1 (mTOR), JAK3, and LTK (TYK1), a mixture containing the test compounds in 100% DMSO, 2.4 μL Kinase buffer (50 mM HEPES pH 7.5, 0.01% BRIJ-35, 10 mM MgCl2, 1 mM EGTA), 5 μL 2× Peptide/Kinase Mixture, 2.5 μL 4×ATP Solution were added into black 384-well low volume NBS and bar-coded corning plate (Corning Cat. #4514) and shake the plate for 30 seconds. After incubation at RT for 60 min, 5 μL Development Reagent Solution was added into plate and shake the plate for 30 seconds, followed by Development Reaction incubation at RT for 60 min. Read on fluorescence plate reader and analyze the data. […]
(§2) Inhibition by compounds 323-1 and 323-2 of MAP2K4 (MEK4) and TGFBR1 (ALK5) was determined by […]. Inhibition by compounds 323-1 and 323-2 of FRAP1 (mTOR), JAK3, and LTK (TYK1) was determined by […] using the Adapta Universal Kinase Assay (Life Technologies). […]

In experiment [2] the target is LTK (TYK1) (Homo sapiens, UniProt P29376). As to the kind of experiment: SelectScreen biochemical kinase profiling, LTK (TYK1). Conditions: cell free, read-out: Enzyme inhibitory activity IC50. Here is the method:
as §1, §2

Experiment [3] deals with MAP2K4 (MEK4) (Homo sapiens, UniProt P45985). The experiment can be described thus: SelectScreen kinase profiling, MAP2K4 (MEK4). The format is binding. Conditions: cell free, read-out: Enzyme inhibitory activity IC50. Here is the method:
as §1, §2

In experiment [4] the target is AKT2 (PKB beta) (Homo sapiens, UniProt P31751). As to the kind of experiment: SelectScreen kinase profiling, AKT2. Conditions: read-out: Enzyme inhibitory activity IC50. The format is biochemical.
Experiment [5] addresses ERBB4 (HER4) (Homo sapiens, UniProt Q15303). As to the kind of experiment: SelectScreen kinase profiling, ERBB4. Conditions: read-out: Enzyme inhibitory activity IC50. It counts as biochemical.
Experiment [6] has as its target FGFR1 (Homo sapiens, UniProt P11362). As to the kind of experiment: SelectScreen kinase profiling, FGFR1. The format is biochemical. Conditions: read-out: Enzyme inhibitory activity IC50.
For experiment [7], the target named is FGFR2 (Homo sapiens, UniProt P21802). The experiment can be described thus: SelectScreen kinase profiling, FGFR2. Conditions: read-out: Enzyme inhibitory activity IC50. The format is biochemical.
The target in experiment [8] is FGFR4 (Homo sapiens, UniProt P22455). The experiment can be described thus: SelectScreen kinase profiling, FGFR4. It counts as biochemical. The note with it: read-out: Enzyme inhibitory activity IC50.
The target in experiment [9] is FLT1 (VEGFR1) (Homo sapiens, UniProt P17948). As to the kind of experiment: SelectScreen kinase profiling, FLT1. Conditions: read-out: Enzyme inhibitory activity IC50. The format is biochemical.
The target in experiment [10] is HCK (Homo sapiens, UniProt P08631). The experiment can be described thus: SelectScreen kinase profiling, HCK. The format is biochemical. Conditions: read-out: Enzyme inhibitory activity IC50.
The target of experiment [11] is JAK2 (Homo sapiens, UniProt O60674). As to the kind of experiment: SelectScreen kinase profiling, JAK2. The format is biochemical. Conditions: read-out: Enzyme inhibitory activity IC50.
The target of experiment [12] is KDR (VEGFR2) (Homo sapiens, UniProt P35968). The experiment can be described thus: SelectScreen kinase profiling, KDR. The note with it: read-out: Enzyme inhibitory activity IC50. The format is biochemical.
The target in experiment [13] is LYN A (Homo sapiens, UniProt P07948). As to the kind of experiment: SelectScreen kinase profiling, LYN A. Conditions: read-out: Enzyme inhibitory activity IC50. It counts as biochemical.
Experiment [14] addresses LYN B (Homo sapiens, UniProt P07948). As to the kind of experiment: SelectScreen kinase profiling, LYN B. The format is biochemical. Conditions: read-out: Enzyme inhibitory activity IC50.
Experiment [15] concerns the target MAPK1 (ERK2) (Homo sapiens, UniProt P28482). The experiment can be described thus: SelectScreen kinase profiling, MAPK1. The format is biochemical. The note with it: read-out: Enzyme inhibitory activity IC50.
Experiment [16] concerns the target MAPK8 (JNK1) (Homo sapiens, UniProt P45983). As to the kind of experiment: SelectScreen kinase profiling, MAPK8. It counts as biochemical. The note with it: read-out: Enzyme inhibitory activity IC50.
Experiment [17] has as its target MET (cMet) (Homo sapiens, UniProt P08581). The experiment can be described thus: SelectScreen kinase profiling, MET. The format is biochemical. Conditions: read-out: Enzyme inhibitory activity IC50.
Experiment [18] concerns the target PRKCD (PKC delta) (Homo sapiens, UniProt Q05655). As to the kind of experiment: SelectScreen kinase profiling, PRKCD. The note with it: read-out: Enzyme inhibitory activity IC50. It counts as biochemical.
Experiment [19] has as its target SRC (Homo sapiens, UniProt P12931). As to the kind of experiment: SelectScreen kinase profiling, SRC. The format is biochemical. The note with it: read-out: Enzyme inhibitory activity IC50.
Experiment [20] concerns the target TGFBR2 (Homo sapiens, UniProt P37173). As to the kind of experiment: SelectScreen kinase profiling, TGFBR2. It counts as biochemical. Conditions: read-out: Enzyme inhibitory activity IC50.

pIC50: −log10 of the molar value. A value given as a limit tells only on which side of the number the result lay.

AKT2 (PKB beta), sequence (P31751 whole entry): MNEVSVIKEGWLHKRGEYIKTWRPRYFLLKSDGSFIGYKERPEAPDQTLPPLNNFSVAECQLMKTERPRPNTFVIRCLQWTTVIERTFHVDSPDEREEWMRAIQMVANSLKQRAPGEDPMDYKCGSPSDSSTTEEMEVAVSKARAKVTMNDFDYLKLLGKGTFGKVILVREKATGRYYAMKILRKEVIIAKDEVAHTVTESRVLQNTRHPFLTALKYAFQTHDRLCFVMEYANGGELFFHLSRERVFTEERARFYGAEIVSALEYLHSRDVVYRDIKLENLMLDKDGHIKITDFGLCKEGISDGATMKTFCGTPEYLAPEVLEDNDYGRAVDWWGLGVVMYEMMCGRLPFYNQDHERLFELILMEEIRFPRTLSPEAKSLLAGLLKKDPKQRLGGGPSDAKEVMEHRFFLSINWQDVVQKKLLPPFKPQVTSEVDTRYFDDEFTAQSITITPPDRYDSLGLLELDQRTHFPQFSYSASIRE
FLT1 (VEGFR1), sequence (P17948 27-1338): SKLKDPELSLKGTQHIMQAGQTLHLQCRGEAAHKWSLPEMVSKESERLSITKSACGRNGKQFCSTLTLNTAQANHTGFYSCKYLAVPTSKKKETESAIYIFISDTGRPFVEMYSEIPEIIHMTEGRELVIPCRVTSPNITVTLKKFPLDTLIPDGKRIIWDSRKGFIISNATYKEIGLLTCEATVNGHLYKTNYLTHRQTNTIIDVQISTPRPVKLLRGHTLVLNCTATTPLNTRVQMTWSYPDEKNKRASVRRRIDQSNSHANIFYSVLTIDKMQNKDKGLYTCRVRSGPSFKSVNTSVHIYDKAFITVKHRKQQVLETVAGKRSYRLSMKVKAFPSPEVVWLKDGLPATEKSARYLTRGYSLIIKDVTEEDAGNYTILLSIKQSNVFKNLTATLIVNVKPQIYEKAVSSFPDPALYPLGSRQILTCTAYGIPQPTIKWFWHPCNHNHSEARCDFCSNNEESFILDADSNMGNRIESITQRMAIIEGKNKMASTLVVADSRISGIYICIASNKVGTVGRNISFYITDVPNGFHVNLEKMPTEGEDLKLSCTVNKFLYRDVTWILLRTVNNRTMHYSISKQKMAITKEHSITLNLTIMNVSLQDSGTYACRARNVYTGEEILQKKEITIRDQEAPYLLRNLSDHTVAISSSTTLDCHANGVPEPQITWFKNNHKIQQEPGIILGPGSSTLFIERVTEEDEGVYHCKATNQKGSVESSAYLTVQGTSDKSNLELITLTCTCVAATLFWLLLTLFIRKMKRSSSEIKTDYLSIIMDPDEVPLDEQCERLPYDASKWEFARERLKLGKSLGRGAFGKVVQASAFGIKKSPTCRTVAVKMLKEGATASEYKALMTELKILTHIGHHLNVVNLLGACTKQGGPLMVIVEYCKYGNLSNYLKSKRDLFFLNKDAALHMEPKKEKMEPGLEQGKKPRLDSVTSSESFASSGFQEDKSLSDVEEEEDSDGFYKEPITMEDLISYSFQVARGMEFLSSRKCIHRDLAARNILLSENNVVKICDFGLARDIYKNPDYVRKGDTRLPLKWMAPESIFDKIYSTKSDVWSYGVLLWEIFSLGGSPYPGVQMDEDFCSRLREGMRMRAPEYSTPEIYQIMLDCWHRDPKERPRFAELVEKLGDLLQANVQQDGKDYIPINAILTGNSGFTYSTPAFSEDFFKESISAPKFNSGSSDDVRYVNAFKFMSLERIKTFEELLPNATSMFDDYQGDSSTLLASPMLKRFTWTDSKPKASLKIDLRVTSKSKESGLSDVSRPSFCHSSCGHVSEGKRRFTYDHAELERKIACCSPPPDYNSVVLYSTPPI
SRC, sequence (P12931 whole entry): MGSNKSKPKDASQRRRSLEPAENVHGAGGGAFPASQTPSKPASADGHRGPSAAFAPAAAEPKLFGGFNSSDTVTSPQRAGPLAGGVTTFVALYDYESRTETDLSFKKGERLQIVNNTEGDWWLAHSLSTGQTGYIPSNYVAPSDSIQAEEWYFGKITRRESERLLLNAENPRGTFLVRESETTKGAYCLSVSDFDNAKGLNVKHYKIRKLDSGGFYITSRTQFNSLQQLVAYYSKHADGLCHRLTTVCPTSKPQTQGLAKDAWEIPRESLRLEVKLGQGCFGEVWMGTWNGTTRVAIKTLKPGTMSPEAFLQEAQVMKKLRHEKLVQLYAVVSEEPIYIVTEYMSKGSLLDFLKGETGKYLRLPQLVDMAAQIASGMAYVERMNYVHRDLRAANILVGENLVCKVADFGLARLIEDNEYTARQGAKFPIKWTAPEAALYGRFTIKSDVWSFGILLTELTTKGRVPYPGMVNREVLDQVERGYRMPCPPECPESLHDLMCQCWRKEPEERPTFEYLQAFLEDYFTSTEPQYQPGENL
LYN A, sequence (P07948 whole entry): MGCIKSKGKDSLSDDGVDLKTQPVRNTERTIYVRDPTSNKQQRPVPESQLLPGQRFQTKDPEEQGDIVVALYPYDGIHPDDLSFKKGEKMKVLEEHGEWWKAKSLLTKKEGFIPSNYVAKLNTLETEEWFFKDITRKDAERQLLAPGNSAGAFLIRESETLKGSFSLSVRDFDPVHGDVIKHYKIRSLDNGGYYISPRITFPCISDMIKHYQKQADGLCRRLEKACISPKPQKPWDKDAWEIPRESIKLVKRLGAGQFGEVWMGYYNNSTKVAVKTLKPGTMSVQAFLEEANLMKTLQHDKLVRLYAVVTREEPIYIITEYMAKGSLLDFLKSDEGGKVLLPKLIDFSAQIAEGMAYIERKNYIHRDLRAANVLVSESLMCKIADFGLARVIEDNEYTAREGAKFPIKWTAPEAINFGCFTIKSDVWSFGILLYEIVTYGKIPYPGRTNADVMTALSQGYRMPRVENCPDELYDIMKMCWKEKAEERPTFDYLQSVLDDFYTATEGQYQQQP
JAK2, sequence (O60674 whole entry): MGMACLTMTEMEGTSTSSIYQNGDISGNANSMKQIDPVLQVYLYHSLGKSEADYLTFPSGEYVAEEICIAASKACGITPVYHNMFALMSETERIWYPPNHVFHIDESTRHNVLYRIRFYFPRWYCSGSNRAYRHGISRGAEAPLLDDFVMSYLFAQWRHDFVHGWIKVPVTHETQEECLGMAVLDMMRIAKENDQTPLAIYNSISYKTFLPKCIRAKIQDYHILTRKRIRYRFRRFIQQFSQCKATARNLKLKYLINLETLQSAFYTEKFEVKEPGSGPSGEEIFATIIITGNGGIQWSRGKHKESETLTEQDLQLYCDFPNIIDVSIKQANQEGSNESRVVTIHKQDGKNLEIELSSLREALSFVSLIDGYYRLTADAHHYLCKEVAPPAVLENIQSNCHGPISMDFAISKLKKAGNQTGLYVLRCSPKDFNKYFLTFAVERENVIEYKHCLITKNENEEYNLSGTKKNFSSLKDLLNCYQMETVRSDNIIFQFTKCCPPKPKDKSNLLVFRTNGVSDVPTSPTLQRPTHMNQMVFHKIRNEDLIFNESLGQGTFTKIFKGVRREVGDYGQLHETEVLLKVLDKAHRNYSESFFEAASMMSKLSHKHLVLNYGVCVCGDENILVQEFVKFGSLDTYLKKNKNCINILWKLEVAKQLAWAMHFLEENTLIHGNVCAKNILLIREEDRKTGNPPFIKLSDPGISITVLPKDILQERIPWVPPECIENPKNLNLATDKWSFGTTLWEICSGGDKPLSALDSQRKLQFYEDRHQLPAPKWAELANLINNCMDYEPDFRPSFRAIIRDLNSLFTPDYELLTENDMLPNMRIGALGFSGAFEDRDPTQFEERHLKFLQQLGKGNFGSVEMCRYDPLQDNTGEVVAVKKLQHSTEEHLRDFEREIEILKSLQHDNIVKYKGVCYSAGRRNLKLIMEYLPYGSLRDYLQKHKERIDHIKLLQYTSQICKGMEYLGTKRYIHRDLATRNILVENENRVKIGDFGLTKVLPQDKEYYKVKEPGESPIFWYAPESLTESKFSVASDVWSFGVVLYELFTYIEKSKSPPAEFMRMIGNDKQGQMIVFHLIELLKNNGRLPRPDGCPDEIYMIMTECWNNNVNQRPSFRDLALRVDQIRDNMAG
LTK (TYK1), sequence (P29376 17-864): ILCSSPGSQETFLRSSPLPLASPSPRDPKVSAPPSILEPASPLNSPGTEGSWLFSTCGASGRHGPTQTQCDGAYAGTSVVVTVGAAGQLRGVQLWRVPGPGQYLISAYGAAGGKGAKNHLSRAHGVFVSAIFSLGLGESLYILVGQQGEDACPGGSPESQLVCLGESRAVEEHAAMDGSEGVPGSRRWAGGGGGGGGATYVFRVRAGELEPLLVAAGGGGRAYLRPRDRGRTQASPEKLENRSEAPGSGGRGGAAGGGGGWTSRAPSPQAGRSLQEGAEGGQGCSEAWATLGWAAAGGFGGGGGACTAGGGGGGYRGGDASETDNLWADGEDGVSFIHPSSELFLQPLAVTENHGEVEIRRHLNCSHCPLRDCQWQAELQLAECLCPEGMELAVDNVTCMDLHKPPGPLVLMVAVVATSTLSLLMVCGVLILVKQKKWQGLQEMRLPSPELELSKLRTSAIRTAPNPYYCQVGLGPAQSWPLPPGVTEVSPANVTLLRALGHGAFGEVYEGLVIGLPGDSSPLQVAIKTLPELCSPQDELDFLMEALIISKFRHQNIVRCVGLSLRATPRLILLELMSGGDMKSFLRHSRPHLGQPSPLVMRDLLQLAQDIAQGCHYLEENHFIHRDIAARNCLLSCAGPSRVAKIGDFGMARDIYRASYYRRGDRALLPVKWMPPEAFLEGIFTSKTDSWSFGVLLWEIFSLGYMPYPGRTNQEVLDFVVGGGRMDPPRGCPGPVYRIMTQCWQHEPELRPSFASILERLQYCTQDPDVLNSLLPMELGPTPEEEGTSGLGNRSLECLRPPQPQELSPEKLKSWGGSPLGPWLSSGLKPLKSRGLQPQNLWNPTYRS

Consider `C[C@@H]1CCC(c2cc3c4c(cncc4c2)[C@H](C)C3)=C1C=O` [323-1, (15R,2R)-Delavatine A], for which the pIC50 in experiment [1] is 5.37; in experiment [2] it was 5.21; in experiment [3], 5.70; in [4], < 4.70; in experiment [5], < 4.70; in [6], < 4.70. In addition, the negative-log IC50 (pIC50) in [7], in experiment [8], in experiment [9], in [10], in [11] and in experiment [12] was < 4.70 throughout. In addition, the pIC50 in experiment [13], in experiment [14], in experiment [15], in experiment [16], in [17] and in experiment [18] was < 4.70 each time. In addition, the pIC50 in experiment [19] and in experiment [20] was < 4.70 throughout.
In the case of `C[C@@H]1CCC(c2cc3c4c(cncc4c2)[C@@H](C)C3)=C1C=O` [323-2, (15S,2R)-Delavatine A], the pIC50 was 4.94 in experiment [1]; 5.28 in experiment [2]; 5.91 in experiment [3]; < 4.70 in [4]; < 4.70 in experiment [5]; < 4.70 in experiment [6]. Further, the pIC50 in experiment [7], in experiment [8], in experiment [9], in experiment [10], in experiment [11] and in experiment [12] was < 4.70 in each case. Also, the pIC50 in experiment [13], in experiment [14], in [15], in experiment [16], in [17] and in experiment [18] was < 4.70 throughout. Moreover, the pIC50 in experiment [19] and in experiment [20] was < 4.70 each time.

As usually defined, the pIC50 is the IC50 on a negative log10 scale, so that one unit is a factor of ten.

Values taken from US20230286919A1, “ISOQUINOLINE DERIVATIVES FOR USE IN THERAPY” (Vestlandets Innovasjonsselskap AS, priority 2020, published 2023).
